Assay results taken from ChEMBL document CHEMBL1149268, “Structure-based design of potent and selective cell-permeable inhibitors of human beta-secretase (BACE-1)” (J Med Chem, 2004).
Calls of active or inactive are those of the source. No cut-off for these calls is given here.

How the values were obtained:
[1] = molecular target: T1, Beta-secretase 2 (Homo sapiens, UniProt Q9Y5Z0); test: (§1) Inhibition of BACE2
T1 sequence (Q9Y5Z0 whole entry): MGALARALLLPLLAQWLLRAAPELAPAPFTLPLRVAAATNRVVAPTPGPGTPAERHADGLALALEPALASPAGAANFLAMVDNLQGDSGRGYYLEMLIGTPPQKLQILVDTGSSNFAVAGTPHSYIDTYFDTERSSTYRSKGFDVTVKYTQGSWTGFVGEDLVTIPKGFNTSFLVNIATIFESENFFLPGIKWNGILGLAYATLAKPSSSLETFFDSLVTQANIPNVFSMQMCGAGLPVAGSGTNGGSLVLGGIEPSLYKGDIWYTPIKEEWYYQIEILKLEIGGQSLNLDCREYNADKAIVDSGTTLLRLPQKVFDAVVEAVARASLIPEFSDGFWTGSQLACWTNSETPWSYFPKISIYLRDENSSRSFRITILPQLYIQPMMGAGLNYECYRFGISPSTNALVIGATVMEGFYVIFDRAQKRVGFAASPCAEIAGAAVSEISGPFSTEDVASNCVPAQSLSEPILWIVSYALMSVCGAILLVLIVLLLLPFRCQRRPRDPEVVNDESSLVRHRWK

[2] = molecular target: T2, Renin (Homo sapiens, UniProt P00797); test: Inhibition of renin
T2 sequence (P00797 whole entry): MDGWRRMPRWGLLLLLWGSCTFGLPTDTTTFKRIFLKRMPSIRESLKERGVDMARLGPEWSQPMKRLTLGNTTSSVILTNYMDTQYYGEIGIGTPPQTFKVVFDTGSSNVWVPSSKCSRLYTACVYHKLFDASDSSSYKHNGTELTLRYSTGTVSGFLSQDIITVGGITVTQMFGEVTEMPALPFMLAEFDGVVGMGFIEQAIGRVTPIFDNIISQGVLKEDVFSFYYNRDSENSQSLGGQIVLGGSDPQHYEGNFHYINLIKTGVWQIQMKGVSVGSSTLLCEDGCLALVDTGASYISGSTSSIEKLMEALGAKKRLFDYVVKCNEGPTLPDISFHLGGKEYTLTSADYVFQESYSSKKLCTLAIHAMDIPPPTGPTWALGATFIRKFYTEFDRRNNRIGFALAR

[3] = molecular target: T3, Beta-secretase 1 (Homo sapiens, UniProt P56817)
T3 sequence (P56817 whole entry): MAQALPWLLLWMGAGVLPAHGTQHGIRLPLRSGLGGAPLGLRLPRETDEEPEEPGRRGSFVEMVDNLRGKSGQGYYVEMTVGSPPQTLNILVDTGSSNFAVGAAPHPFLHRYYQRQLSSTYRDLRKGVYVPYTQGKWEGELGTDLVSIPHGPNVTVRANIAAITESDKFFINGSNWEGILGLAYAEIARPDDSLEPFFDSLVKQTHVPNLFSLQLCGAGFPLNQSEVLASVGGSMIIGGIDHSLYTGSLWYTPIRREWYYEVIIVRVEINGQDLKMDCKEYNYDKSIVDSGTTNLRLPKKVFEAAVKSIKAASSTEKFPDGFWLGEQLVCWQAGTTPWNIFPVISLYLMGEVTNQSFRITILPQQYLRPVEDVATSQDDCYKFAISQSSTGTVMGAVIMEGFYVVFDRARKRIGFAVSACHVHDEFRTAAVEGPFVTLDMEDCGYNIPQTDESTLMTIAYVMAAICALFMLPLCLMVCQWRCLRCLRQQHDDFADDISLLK

[4] = molecular target: T3, Beta-secretase 1; remark: listed apart in the source
[5] = molecular target: T4, Beta-secretase 2 (Homo sapiens) (UniProt Q9Y5Z0); test: as §1
T4 sequence (whole entry): T1 sequence (Q9Y5Z0 whole entry)

## C[C@@H](NC(=O)c1cc(C(=O)N[C@@H](Cc2ccccc2)[C@H](O)CNC2CC2)cc(N(C)S(C)(=O)=O)c1)c1ccc(F)cc1
[1]
  IC50: 69 nM
[2]
  IC50: > 10000 nM
[3]
  IC50: 19 nM
[4]
  IC50: 10 nM

## C[C@@H](NC(=O)c1cc(C(=O)N[C@@H](Cc2ccccc2)[C@H](O)CNC2CC2)cc(N(C)S(=O)(=O)N(C)C)c1)c1ccccc1
[1]
  IC50: 110 nM
[2]
  IC50: > 50000 nM
[3]
  IC50: 9 nM
[4]
  IC50: 14 nM

## C[C@@H](NC(=O)c1cc(C(=O)N[C@@H](Cc2ccccc2)[C@H](O)CN)cc(N(C)S(C)(=O)=O)c1)c1ccc(F)cc1
[1]
  IC50: 443 nM
[2]
  IC50: > 50000 nM
[3]
  IC50: 5390 nM
[4]
  IC50: 23 nM

## C[C@@H](NC(=O)c1cc(NS(C)(=O)=O)cc(C(=O)N[C@@H](Cc2ccccc2)C(O)CNC2CC2)c1)c1ccc(F)cc1 (some centres undefined)
[1]
  IC50: 210 nM
[2]
  IC50: > 50000 nM
[3]
  IC50: 1180 nM
[4]
  IC50: 63 nM

## CC(C)S(=O)(=O)N(C)c1cc(C(=O)N[C@@H](Cc2ccccc2)[C@H](O)CNC2CC2)cc(C(=O)N[C@H](C)c2ccccc2)c1
[1]
  IC50: 360 nM
[2]
  IC50: > 50000 nM
[3]
  IC50: 25 nM
[4]
  IC50: 41 nM

## CCNC[C@@H](O)[C@H](Cc1ccccc1)NC(=O)c1cc(C(=O)N[C@H](C)c2ccc(F)cc2)cc(N(C)S(C)(=O)=O)c1
[1]
  IC50: 260 nM
[2]
  IC50: > 50000 nM
[3]
  IC50: 396 nM
[4]
  IC50: 15 nM

## C[C@@H](NC(=O)c1cc(C(=O)N[C@@H](Cc2ccccc2)C(O)CNC2CC2)cc(N(C)S(C)(=O)=O)c1)c1ccccc1 (some centres undefined)
[2]
  IC50: > 50000 nM

## C[C@@H](NC(=O)c1cc(C(=O)N[C@@H](Cc2ccccc2)[C@H](O)CNC(C)(C)C)cc(N(C)S(C)(=O)=O)c1)c1ccc(F)cc1
[5]
  Activity: inactive
[2]
  IC50: > 50000 nM
[3]
  IC50: 2120 nM
[4]
  IC50: 15 nM
